# Data: patent US12459912B2 (priority 2020, dated 2025)
# Legend:
# [1] = target: OPRM1 (Opioid Receptor Mu) (Homo sapiens, UniProt P35372); assay: cell-based
# [2] = target: T1, DAT (Dopamine transporter) (Homo sapiens, UniProt Q01959); assay: DAT/Transporter (fluorescent substrate uptake); assay type: cell-based
# T1 construct: expressed in transfected cells
# [3] = target: ADRA1A (Adrenergic Receptor on α1A) (Homo sapiens, UniProt P35348); assay: ADRA1A/Calcium Flux; assay type: cell-based; details: EC50 (μM)
# [4] = target: GR (Nuclear Hormone Glucocorticoid Receptor) (Homo sapiens, UniProt P04150); assay: GR/NHR Protein Interaction; assay type: cell-based
# [5] = target: AVPR1A (Arginine Vasopressin Receptor 1A) (Homo sapiens, UniProt P37288); assay: AVPR1A/Calcium Flux; assay type: cell-based
# [6] = target: OPRD1 (Opioid Receptor Delta 1) (Homo sapiens, UniProt P41143); assay: OPRD1/cAMP; assay type: cell-based
# [7] = target: 5-Hydroxytryptamine (Serotonin) Receptor 2A (5-HT2A) (Homo sapiens, UniProt P28223); assay: 5-HT2A/Calcium Flux; assay type: cell-based; details: EC50 (μM)
# [8] = target: CHRM2 (Muscarinic acetylcholine Receptor M2) (Homo sapiens, UniProt P08172); assay: CHRM2/cAMP; assay type: cell-based
# [9] = target: CNR1 (Cannabinoid Receptor 1) (Homo sapiens, UniProt P21554); assay: CNR1/cAMP; assay type: cell-based
# [10] = target: T2, PDE4D2 (cAMP-specific 3′,5′-cyclic phospho-diesterase) (Homo sapiens, UniProt Q08499); assay: PDE4D2/Enzymatic; assay type: biochemical
# T2 construct: purchased Signal Chem
# [11] = target: HRH1 (Histamine Receptor H1) (Homo sapiens, UniProt P35367); assay: cell-based
# [12] = target: T3, ROCK1 (Rho Associated Coiled-Coil Containing Protein Kinase 1) (Homo sapiens, UniProt Q13464); assay: ROCK1/Binding (KINOMEscan)
# T3 construct: made in house; host or cells: E. coli BL21-derived host (T7 phage) or HEK-293
# COX1 (Cyclooxygenase 1) = target: T4, COX1 (Cyclooxygenase 1) (Homo sapiens, UniProt P23219); assay: COX1/Enzymatic; assay type: biochemical
# T4 construct: purchased BPS Bioscience
# [13] = target: T5, CAV1.2 (Voltage-gated L-type calcium channel) (Homo sapiens, UniProt Q13936); assay: CAV1.2/Ion Channel; assay type: cell-based
# T5 construct: expressed in transfected cells
# [14] = target: CNR2 (Cannabinoid Receptor 2) (Homo sapiens, UniProt P34972); assay: CNR2/cAMP; assay type: cell-based
# [15] = target: T6, MAOA (Monoamine oxidase type A) (Homo sapiens, UniProt P21397); assay: MAOA/Enzymatic; assay type: biochemical
# T6 construct: purchased Sigma
# KvLQT1/minK = target: T7, KvLQT1/minK (Homo sapiens, UniProt P51787); assay: KvLQT1/minK/Ion Channel; assay type: cell-based
# T7 construct: expressed in transfected cells
# [16] = target: T8, INSR (Insulin Receptor (tyrosine kinase)) (Homo sapiens, UniProt P06213); assay: INSR/Binding (KINOMEscan)
# T8 construct: made in house; host or cells: E. coli BL21-derived host (T7 phage) or HEK-293
# [17] = target: CHRM1 (Muscarinic acetylcholine Receptor M1) (Homo sapiens, UniProt P11229); assay: cell-based
# [18] = target: EDNRA (Endothelin Receptor Type A) (Homo sapiens, UniProt P25101); assay: EDNRA/Calcium Flux; assay type: cell-based
# [19] = target: 5-Hydroxytryptamine (Serotonin) Receptor 1A (5-HT1A) (Homo sapiens, UniProt P08908); assay: 5-HT1A/cAMP; assay type: cell-based
# [20] = target: T9, PDE3A (cGMP-inhibited cyclic nucleotide phosphodiesterase 3A) (Homo sapiens, UniProt Q14432); assay: PDE3A/Enzymatic; assay type: biochemical
# T9 construct: purchased Signal Chem
# [21] = target: AR (Nuclear Hormone Androgen Receptor) (Homo sapiens, UniProt P10275); assay: AR/NHR Nuclear Translocation; assay type: cell-based
# [22] = target: ADORA2A (Adenosine Receptor A2A) (Homo sapiens, UniProt P29274); assay: ADORA2A/Calcium Flux; assay type: cell-based
# COX2 (Cyclooxygenase 2) = target: T10, COX2 (Cyclooxygenase 2) (Homo sapiens, UniProt P35354); assay: COX2/Enzymatic; assay type: biochemical
# T10 construct: purchased BPS Bioscience
# [23] = target: NAV1.5 (tetrodotoxin-resistant voltage-gated sodium channel) (Homo sapiens, UniProt Q14524); assay: cell-based
# [24] = target: 5-Hydroxytryptamine (Serotonin) Receptor 1B (5-HT1B) (Homo sapiens, UniProt P28222); assay: 5-HT1B/cAMP; assay type: cell-based; details: EC50 (μM)
# [25] = target: CCKAR (Cholecystokinin Receptor A) (Homo sapiens, UniProt P32238); assay: CCKAR/Calcium Flux; assay type: cell-based
# [26] = target: T11, AChE (Acetylcholinesterase) (Homo sapiens, UniProt P22303); assay: AChE/Enzymatic; assay type: biochemical
# T11 construct: purchased R&D Systems
# hERG = target: T12, hERG (Homo sapiens, UniProt Q12809); assay: hERG/Ion Channel; assay type: cell-based
# T12 construct: expressed in transfected cells
# [27] = target: HRH2 (Histamine Receptor H2) (Homo sapiens, UniProt P25021); assay: HRH2/cAMP; assay type: cell-based
# [28] = target: T13, LCK (Lymphocyte Cell-Specific Protein-Tyrosine Kinase (Src family)) (Homo sapiens, UniProt P06239); assay: LCK/Binding (KINOMEscan)
# T13 construct: made in house; host or cells: E. coli BL21-derived host (T7 phage) or HEK-293
# [29] = target: DRD1 (Dopamine Receptor D1) (Homo sapiens, UniProt P21728); assay: DRD1/cAMP; assay type: cell-based
# [30] = target: T14, SERT (Serotonin transporter) (Homo sapiens, UniProt P31645); assay: cell-based
# T14 construct: expressed in transfected cells
# [31] = target: T15, NET (Norepinephrine transporter) (Homo sapiens, UniProt P23975); assay: NET/Transporter (fluorescent substrate uptake); assay type: cell-based
# T15 construct: expressed in transfected cells
# ADRA1A (Adrenergic Receptor on α1A), sequence (P35348 whole entry): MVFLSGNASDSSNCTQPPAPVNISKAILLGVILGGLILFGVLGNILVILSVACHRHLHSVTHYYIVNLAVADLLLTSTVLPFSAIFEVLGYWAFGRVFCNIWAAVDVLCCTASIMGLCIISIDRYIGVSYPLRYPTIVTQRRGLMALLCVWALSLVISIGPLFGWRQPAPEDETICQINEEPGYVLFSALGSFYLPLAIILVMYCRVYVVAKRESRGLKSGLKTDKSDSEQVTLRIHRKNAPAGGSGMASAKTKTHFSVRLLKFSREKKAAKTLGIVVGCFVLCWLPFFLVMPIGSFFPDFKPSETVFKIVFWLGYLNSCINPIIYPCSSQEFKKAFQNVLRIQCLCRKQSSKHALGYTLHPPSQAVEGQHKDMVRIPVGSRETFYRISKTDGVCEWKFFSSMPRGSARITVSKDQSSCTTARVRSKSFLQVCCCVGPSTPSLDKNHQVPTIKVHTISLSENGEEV
# 5-Hydroxytryptamine (Serotonin) Receptor 1B (5-HT1B), sequence (P28222 whole entry): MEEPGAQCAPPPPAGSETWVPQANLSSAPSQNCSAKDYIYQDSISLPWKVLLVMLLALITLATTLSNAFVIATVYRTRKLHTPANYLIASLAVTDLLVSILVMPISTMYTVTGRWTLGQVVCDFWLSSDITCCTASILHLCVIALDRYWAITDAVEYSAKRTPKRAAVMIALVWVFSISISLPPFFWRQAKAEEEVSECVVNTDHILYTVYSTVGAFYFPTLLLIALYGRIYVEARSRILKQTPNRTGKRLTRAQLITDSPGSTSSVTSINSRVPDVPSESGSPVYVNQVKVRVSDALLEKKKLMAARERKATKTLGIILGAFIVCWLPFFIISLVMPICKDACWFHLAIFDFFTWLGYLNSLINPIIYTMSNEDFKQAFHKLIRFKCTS
# CNR2 (Cannabinoid Receptor 2), sequence (P34972 whole entry): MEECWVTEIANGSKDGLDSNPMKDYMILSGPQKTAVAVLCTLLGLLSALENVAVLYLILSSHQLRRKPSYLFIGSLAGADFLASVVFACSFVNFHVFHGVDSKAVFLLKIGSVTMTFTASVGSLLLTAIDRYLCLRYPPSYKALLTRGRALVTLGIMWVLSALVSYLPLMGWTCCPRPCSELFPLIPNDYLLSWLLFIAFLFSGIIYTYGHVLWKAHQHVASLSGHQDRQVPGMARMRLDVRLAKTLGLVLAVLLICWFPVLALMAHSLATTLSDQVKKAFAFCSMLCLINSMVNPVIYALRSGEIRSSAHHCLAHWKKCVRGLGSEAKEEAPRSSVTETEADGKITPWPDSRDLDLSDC
# T6 sequence (P21397 whole entry): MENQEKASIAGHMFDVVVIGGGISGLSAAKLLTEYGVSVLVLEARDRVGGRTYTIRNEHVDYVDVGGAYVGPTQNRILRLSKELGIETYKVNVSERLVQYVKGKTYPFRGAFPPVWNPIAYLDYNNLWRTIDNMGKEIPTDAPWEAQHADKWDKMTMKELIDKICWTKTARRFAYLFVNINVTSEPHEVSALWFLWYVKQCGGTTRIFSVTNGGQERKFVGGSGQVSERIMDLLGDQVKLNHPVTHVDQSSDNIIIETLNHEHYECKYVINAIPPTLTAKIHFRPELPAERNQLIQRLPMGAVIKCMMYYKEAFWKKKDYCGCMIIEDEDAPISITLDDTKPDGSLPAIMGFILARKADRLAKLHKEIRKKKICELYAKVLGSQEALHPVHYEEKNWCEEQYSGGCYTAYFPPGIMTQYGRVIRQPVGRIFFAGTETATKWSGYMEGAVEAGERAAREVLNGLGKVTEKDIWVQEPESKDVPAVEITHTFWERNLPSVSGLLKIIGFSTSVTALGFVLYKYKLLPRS
# CHRM2 (Muscarinic acetylcholine Receptor M2), sequence (P08172 whole entry): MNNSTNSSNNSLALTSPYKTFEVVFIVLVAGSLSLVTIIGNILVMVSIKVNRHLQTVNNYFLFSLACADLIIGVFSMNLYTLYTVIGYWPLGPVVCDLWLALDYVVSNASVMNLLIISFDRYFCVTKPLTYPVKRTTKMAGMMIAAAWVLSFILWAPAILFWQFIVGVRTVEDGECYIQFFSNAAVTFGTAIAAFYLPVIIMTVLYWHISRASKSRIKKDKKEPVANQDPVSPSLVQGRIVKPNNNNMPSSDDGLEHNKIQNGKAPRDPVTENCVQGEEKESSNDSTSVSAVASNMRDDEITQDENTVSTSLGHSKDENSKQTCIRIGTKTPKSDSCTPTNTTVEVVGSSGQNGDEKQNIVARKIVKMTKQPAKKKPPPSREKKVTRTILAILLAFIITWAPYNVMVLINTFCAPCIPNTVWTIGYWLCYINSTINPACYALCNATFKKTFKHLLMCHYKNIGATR
# T2 sequence (Q08499 303-809 limits assumed): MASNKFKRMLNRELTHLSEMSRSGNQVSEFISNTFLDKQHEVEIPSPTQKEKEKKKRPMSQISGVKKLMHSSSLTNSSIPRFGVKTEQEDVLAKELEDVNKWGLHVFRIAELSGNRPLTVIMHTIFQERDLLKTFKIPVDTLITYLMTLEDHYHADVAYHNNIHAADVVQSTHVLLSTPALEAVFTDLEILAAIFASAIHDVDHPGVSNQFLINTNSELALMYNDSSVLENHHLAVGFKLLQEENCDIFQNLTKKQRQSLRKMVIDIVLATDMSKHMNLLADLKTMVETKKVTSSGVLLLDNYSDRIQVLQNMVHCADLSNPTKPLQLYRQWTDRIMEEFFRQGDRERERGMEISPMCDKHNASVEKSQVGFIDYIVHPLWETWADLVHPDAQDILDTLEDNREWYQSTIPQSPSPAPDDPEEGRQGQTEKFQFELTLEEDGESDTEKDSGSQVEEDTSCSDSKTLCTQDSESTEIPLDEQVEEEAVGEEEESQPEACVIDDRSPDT
# EDNRA (Endothelin Receptor Type A), sequence (P25101 21-427): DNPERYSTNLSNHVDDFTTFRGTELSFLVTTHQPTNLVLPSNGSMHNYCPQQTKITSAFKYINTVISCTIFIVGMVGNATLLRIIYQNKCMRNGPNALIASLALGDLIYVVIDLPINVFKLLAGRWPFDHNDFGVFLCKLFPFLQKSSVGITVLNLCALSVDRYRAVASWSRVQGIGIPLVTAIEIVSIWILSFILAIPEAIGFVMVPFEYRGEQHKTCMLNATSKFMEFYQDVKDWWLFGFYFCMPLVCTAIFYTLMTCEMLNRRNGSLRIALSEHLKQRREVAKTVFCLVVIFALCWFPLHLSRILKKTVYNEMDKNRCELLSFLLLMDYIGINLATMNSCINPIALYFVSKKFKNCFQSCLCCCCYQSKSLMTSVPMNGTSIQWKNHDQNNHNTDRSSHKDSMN
# CCKAR (Cholecystokinin Receptor A), sequence (P32238 whole entry): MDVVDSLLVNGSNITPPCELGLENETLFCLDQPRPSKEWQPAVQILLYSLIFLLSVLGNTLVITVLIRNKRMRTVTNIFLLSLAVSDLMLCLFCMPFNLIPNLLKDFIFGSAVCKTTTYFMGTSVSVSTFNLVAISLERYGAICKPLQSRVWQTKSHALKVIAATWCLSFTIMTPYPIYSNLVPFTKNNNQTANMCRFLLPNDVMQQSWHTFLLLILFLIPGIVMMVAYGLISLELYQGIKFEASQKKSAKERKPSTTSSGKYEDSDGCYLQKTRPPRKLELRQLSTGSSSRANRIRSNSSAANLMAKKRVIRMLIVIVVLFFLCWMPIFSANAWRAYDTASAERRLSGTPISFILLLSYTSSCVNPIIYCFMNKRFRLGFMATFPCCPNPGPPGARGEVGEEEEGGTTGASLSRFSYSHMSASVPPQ
# AVPR1A (Arginine Vasopressin Receptor 1A), sequence (P37288 whole entry): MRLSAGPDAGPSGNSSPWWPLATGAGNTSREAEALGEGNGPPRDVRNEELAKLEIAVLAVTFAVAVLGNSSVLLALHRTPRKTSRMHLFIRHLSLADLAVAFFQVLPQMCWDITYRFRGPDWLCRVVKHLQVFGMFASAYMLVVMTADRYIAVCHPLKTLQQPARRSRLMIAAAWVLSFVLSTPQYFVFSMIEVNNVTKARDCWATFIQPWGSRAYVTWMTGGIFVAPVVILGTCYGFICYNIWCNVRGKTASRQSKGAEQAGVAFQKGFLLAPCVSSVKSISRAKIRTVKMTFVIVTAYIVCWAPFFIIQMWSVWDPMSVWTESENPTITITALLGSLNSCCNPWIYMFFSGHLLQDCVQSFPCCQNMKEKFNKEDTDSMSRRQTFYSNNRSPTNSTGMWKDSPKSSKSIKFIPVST
# DRD1 (Dopamine Receptor D1), sequence (P21728 whole entry): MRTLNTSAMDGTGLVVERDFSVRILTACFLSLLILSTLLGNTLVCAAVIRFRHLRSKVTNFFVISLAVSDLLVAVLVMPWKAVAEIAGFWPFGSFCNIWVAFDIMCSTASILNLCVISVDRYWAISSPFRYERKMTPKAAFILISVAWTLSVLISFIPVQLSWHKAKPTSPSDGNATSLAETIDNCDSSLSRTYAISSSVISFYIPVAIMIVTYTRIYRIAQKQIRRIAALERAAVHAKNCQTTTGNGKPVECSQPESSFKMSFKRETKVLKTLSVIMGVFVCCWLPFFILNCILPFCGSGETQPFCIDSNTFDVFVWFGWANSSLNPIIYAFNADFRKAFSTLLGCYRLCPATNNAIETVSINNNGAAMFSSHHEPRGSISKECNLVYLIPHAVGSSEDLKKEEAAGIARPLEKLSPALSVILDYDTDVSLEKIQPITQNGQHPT
# 5-Hydroxytryptamine (Serotonin) Receptor 1A (5-HT1A), sequence (P08908 whole entry): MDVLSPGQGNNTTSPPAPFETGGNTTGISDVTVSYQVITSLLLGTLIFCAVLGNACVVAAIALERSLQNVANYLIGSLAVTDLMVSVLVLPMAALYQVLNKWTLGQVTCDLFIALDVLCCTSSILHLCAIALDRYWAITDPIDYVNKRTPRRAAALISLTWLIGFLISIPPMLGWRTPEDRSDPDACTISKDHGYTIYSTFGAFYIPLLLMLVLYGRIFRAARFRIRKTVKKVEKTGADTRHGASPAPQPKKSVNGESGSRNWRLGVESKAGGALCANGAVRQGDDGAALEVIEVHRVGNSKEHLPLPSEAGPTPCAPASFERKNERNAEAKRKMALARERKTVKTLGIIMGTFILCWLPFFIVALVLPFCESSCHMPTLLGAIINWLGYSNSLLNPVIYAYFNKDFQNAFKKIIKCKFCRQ
compound,measurement,setting,value
CNC(C)Cc1ccc2ccsc2c1 (centres unmarked) [drawing 522],EC50,[1],> 10 µM
same,EC50,[2],320 nM
same,EC50,[3]; agonist,> 10 µM
same,EC50,[3]; antagonist,3.43 µM
same,EC50,[4],> 10 µM
same,EC50,[5],> 10 µM
same,EC50,[6],> 10 µM
same,EC50,[7]; agonist,0.959 µM
same,EC50,[7]; antagonist,1.72 µM
same,EC50,[8],> 10 µM
same,EC50,[9],> 10 µM
same,EC50,[10],> 10 µM
same,EC50,[11],> 10 µM
same,EC50,[12],> 10 µM
same,EC50,COX1 (Cyclooxygenase 1),> 10 µM
same,EC50,[13],> 10 µM
same,EC50,[14],> 10 µM
same,EC50,[15],945 nM
same,EC50,KvLQT1/minK,> 10 µM
same,EC50,[16],> 10 µM
same,EC50,[17],> 10 µM
same,EC50,[18],> 10 µM
same,EC50,[19],> 10 µM
same,EC50,[20],> 10 µM
same,EC50,[21],> 10 µM
same,EC50,[22],> 10 µM
same,EC50,COX2 (Cyclooxygenase 2),> 10 µM
same,EC50,[23],> 10 µM
same,EC50,[24]; agonist,0.024 µM
same,EC50,[24]; antagonist,> 10 µM
same,EC50,[25],> 10 µM
same,EC50,[26],> 10 µM
same,EC50,hERG,> 10 µM
same,EC50,[27],> 10 µM
same,EC50,[28],> 10 µM
same,EC50,[29],> 10 µM
same,EC50,[30],> 10 µM
same,EC50,[31],684 nM
